Entries after “also recorded” stand apart in the source; their conditions may differ.
Experiments:
[1] = biological target: T1, human serotonin 5-HT1b receptor (Homo sapiens, UniProt P28222); test: GTPγS assay, recombinant CHO-K1 membranes; format: biochemical; settings: human recombinant cell lines; FIG. 1
T1 construct: expressed in transfected cells; host or cells: CHO-K1 (membranes)
Procedure: (§1) Eltoprazine was tested for activity on the human serotonin 5-HT1a and 5-HT1b receptors using a GTPγS assay. Recombinant membranes obtained from CHO-K1 cells expressing either the 5-HT1a or 5-HT1b receptors were mixed with GDP (volume:volume) and incubated for at least 15 min on ice. In parallel, GTPγ[35S] was mixed with the beads (volume:volume) just before starting the reaction. The following reagents were successively added in the wells of an Optiplate (Perkin Elmer): 50 μl of test compound, 20 μl of the membranes:GDP mix, 10 μl of assay buffer (for agonist testing) and 20 μl of the GTPγ[35S]:beads mix. The plates were covered with a top seal, shaken on an orbital shaker for 2 min, and then incubated for 1 h at room temperature. Then the plates were centrifuged for 10 min at 2000 rpm, incubated at room temperature 1 h and counted for 1 min/well with a PerkinElmer TopCount reader.

[2] = biological target: T2, human serotonin 5-HT1a receptor (Homo sapiens, UniProt P08908); test: GTPγS assay, recombinant CHO-K1 membranes; format: biochemical; settings: human recombinant cell lines; FIG. 1
T2 construct: expressed in transfected cells; host or cells: CHO-K1 (membranes)
T2 sequence (P08908 1-422): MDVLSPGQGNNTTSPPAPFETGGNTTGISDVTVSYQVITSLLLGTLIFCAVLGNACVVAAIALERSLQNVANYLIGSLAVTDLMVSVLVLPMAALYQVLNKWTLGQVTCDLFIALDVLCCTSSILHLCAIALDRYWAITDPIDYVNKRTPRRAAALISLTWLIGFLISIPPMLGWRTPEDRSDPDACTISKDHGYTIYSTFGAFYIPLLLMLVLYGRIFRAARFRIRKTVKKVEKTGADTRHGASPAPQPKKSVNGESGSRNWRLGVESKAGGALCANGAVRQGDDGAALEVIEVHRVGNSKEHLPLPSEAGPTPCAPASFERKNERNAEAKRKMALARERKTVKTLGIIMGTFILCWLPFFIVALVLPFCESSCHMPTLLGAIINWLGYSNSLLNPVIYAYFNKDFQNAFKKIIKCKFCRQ
Procedure: as §1

[3] = tested on: 5-HT2c (initially designated 5-HT1c); settings: Schipper et al. 1990; cited from earlier work
Sprague-Dawley rats [4] = test: Contextual fear conditioning; format: in vivo; settings: acute s.c. 0.078 to 1.25 mg/kg, 60 min before the test; FIG. 4
Procedure: For contextual fear conditioning, open field, fear potentiated startle and elevate plus maze, experimentally naive adult male Sprague-Dawley rats (250-300 g; Janvier, France) were housed in groups of four per cage. Colony room temperature and humidity were maintained respectively at 20±1° C. and 60±3%. Food and water were available ad libitum and the animals were kept under an alternating 12 h/12 h day-night cycle (lights on at 07.00) for at least 6 days before the experiments were started. All experiments were conducted during the light period of the day-night cycle. For the Vogel test, male experimentally naive Wistar rats (180-220 g, State Breeding Farm “Rappolovo”, St. Petersburg, Russia; N=109) were used. Each animal was used only once.
Eltoprazine hydrochloride was dissolved in sterile water. […]
For training and testing, subjects were placed in test cages (30 cm wide, 29 cm high and 25 cm deep) equipped with a grid floor consisting of 18 stainless steel bars (3 mm ID). […] 24 h after conditioning, subjects are placed back in the test cages and freezing is recorded for a period of 5 min. […]
Percent of freezing during the 5 min expression test on day 2 is taken for statistical analysis. Data are analysed by one-way ANOVA on ranks followed by rank sum tests.

Sprague-Dawley rats [5] = test: Elevated plus maze; format: in vivo; settings: doses of 0.3125 and 1.25 mg/kg s.c.; FIG. 6
Procedure: For contextual fear conditioning, open field, fear potentiated startle and elevate plus maze, experimentally naive adult male Sprague-Dawley rats (250-300 g; Janvier, France) were housed in groups of four per cage. Colony room temperature and humidity were maintained respectively at 20±1° C. and 60±3%. Food and water were available ad libitum and the animals were kept under an alternating 12 h/12 h day-night cycle (lights on at 07.00) for at least 6 days before the experiments were started. All experiments were conducted during the light period of the day-night cycle. […]
The elevated plus maze, made from black polypropylene, consists of two open arms (50.8 cm×10.2 cm surrounded by 1.3 cm walls) and two enclosed arms (50.8×10.2 cm and 40.6 cm high walls), which extended form central platform (10.2×10.2 cm). […] Breaks of photo beam are recorded and analysed automatically using an IBM-PC running MED-PC software version IV (Med Associates). […] During the following 5 min period the number of entries into closed and open arms as well as time spent in each type of arm is recorded. An arm entry is recorded when all four paws entering the arm. The obtained results are expressed as mean±S.E.M. percent entries or percent time spent in open arms. […]
Percent of time spent in open arm are taken for statistical analysis. Data are analysed by one-way ANOVA followed by Dunnett's test.

patients = settings: clinical trials, de Koning et al. 1994; cited from earlier work
[6] = Rodgers et al., 1992; Rocha et al., 1994; cited from earlier work

T1 sequence (P28222 whole entry): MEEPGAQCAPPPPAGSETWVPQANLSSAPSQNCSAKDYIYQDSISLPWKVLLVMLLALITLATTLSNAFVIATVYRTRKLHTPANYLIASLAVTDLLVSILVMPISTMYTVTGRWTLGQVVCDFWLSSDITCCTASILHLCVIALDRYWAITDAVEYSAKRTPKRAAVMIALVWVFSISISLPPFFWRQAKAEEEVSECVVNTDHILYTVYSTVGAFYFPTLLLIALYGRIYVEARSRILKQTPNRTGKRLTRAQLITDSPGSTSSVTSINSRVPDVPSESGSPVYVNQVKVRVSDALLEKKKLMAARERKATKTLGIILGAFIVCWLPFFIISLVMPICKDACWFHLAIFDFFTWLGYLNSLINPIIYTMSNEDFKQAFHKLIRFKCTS

For `c1cc2c(c(N3CCNCC3)c1)OCCO2` [eltoprazine, 1-(2,3-dihydro-1,4-benzodioxin-5-yl)piperazine], the “functional activity at 5-HT1b receptor” value [1] is given as “partial agonistic action”, the “functional activity at 5-HT1a receptor” value [2] is given as “partial agonistic action” and the “effect on 5-HT2c” value [3] is given as “antagonistic”. For the same compound, the “time spent freezing during re-exposure to the conditioning context” value (Sprague-Dawley rats [4]) was “dose-dependently induced anxiolytic-like effects; also recorded: very strong anxiolytic effect”, the “time spent in the open arms of the elevated plus maze” value (Sprague-Dawley rats [5]) was “reduced the time spent in the open arms; also recorded: anxiogenic-like effect” and the clinical safety (patients) was “clinically safe”. For the same compound, the “effect in the elevated plus maze, previous data” value [6] was “anxiogenic-like effects”.
